Test results reported in patent publication US20240189276A1, “COMPOSITIONS COMPRISING LACTATE DEHYDROGENASE-A INHIBITORS AND METHODS OF PRODUCTION AND USE THEREOF” (Southwestern Oklahoma State University, priority 2022, published 2024).

Columns and labels:
LDHA = LDHA (Homo sapiens, UniProt P00338); conditions: literature; cited from earlier work
cells = conditions: literature; cited from earlier work
PANC-1 cells = test: Cytotoxicity (viability/proliferation/necrosis) assay, PANC-1; assay type: cell-based; conditions: Homo sapiens; PANC-1, 48 hr, normoxic; read-out: Cytotoxicity IC50 ± SD, PANC-1
Procedure: (§1) Cytotoxicity study: Anticancer potency was investigated using a fluorescence-based high throughput confocal microscopy cell viability/proliferation/cell death assay. […] Selected compounds were also tested in the FC1199 pancreatic cancer line from the KPC-1 genetically engineered mouse model. Compounds were also tested in hTERT immortalized normal pancreatic (HPNE) cell lines to rule out nonspecific cytotoxicity of compounds.
(§2) Cell lines. The human PANC-1, MiaPaCa-2, and HPNE cell lines were obtained from American Type Culture Collection (ATCC, Manassas, VA, USA). Mouse pancreatic cancer FC1199 cells were obtained from the KPC-1 genetically engineered mouse model that has mutated K-Ras, metastasizes to the liver, and forms desmoplasia.
(§3) Cytotoxicity assay. Cytotoxicity was assessed using the viability/proliferation/necrosis assay. […] Confocal images were acquired using the Operetta High Content Imaging System (PerkinElmer). […] SYTOX Green will be detected using an excitation wavelength of 500-520 nm and an emission wavelength of 520-530 nm. Brightfield images will also be acquired for each field. […] Cell counts were summed over the five fields for each well, and the percentage of viable cells was calculated relative to the untreated control.

[1] = test system: FC1199 pancreatic cancer cells; test: Cytotoxicity (viability/proliferation/necrosis) assay, FC1199; assay type: cell-based; conditions: Mus musculus, Pancreatic cancer cell; FC-1199, 48 hr; read-out: Cytotoxicity IC50 ± SD, FC-1199
Procedure: as §1, §2, §3

[2] = Cytotoxicity assay in hTERT immortalized normal pancreatic cells; assay type: cell-based; conditions: human, HPNE cells (hTERT immortalized normal pancreatic cells), read-out: Cytotoxicity IC50 ± SD, HPNE Normal
Procedure: as §1, §2, §3

hLDH5 (LDHA) = hLDH5 (LDHA) (Homo sapiens, UniProt P00338); test: Biochemical LDHA (hLDH5) inhibition assay, NADH fluorescence; conditions: read-out: LDHA inhibition IC50 ± SD
Procedure: Biochemical LDHA inhibition assay: The hLDH5 (LDHA) enzymatic activity was measured by fluorescence (excitation@ 340 nm, emission@ 460 nm) to monitor the rate of conversion of NADH to NAD+at 37° C.
The hLDH5 (LDHA) inhibition assay was performed by measuring the fluorescence (excitation@ 340 nm, emission@ 460 nm) and monitoring the rate of conversion of NADH to NAD+at 37° C. as reported. […] The stock solution of compounds was prepared in DMSO. […] The experiment involved adding a solution of compounds in DMSO to the enzyme and NADH in a phosphate buffer. The assay plate was incubated at 25° C. for 10 minutes, and a baseline read was taken, after which pyruvate was added. The fluorescence was read for 5 minutes every 30 seconds in a microplate reader. The slope of a suitable linear timeframe was calculated with the curve bottom assigned to the initial 5-second recording before adding pyruvate (background rate) and the curve top to the negative (DMSO only) control wells rate. IC50 values were determined from dose-response curves using four-parameter logistic non-linear regression analysis in Prism Software v9.0. The assays were performed in triplicates and the data is presented as mean±SD (n=3).

[3] = test system: HeLa human cervical carcinoma cells; conditions: literature; normoxic conditions stated for NHI-2; cited from earlier work
[4] = test system: human pancreatic and lymphoma cancer xenografts; conditions: literature; cited from earlier work
Snu398 cells = conditions: literature; read-out: cell viability EC50 in Snu398 cells; cited from earlier work
cancer cell growth = conditions: literature, hypoxic conditions; read-out: IC50, inhibition of cancer cell growth; cited from earlier work
[5] = literature; cited from earlier work
PANC-1 = conditions: literature, normoxic conditions; read-out: viability IC50 in PANC-1; cited from earlier work
PDAC cells = conditions: literature; cited from earlier work
MIA PaCa-2 = conditions: literature; read-out: cell viability IC50 in MIA PaCa-2; cited from earlier work

**Q.** For `Cc1nc2ccc(NC(=O)CCNC(=O)CCCc3ccc(CC(C(=O)O)C(=O)O)cc3)cc2s1` [AZ33], which IC50 (LDHA) is on record?
**A.** 0.5 µM

**Q.** What about the “cellular activity” value (cells) of the same molecule?
**A.** inactive in cells

**Q.** What does the source list for `COC(=O)C(CC(=O)Nc1ccc(C(=O)c2nccn2C)cc1)c1ccc(C(F)(F)F)cc1` (centres unmarked) [Compound 4]?
**A.** IC50 (PANC-1 cells): 23.9 ± 1.8 µM; IC50 [1]: 12.1 ± 1.2 µM; IC50 at 48 hr [2]: 49.5 ± 7.3 µM

**Q.** Which results are given for `Cn1ccnc1C(=O)c1ccc(NC(=O)CC(C(=O)O)c2ccc(C(F)(F)F)cc2)cc1` (centres unmarked) [Compound 5]?
**A.** IC50 (PANC-1 cells): 43.3 ± 3.98 µM; IC50 [1]: 20.8 ± 2.97 µM; IC50 at 48 hr [2]: > 50 µM

**Q.** What does the source list for `COC(=O)C(CC(=O)Nc1ccc(C(=O)N2CCc3ccccc32)cc1)c1ccc(C(F)(F)F)cc1` (centres unmarked) [Compound 17]?
**A.** IC50 (PANC-1 cells): 24.2 ± 1.08 µM; IC50 [1]: 73.4 ± 6.8 µM; IC50 at 48 hr [2]: 50.7 ± 3.6 µM

**Q.** What does the source list for `O=C(CC(C(=O)O)c1ccc(C(F)(F)F)cc1)Nc1ccc(C(=O)N2CCc3ccccc32)cc1` (centres unmarked) [Compound 19]?
**A.** IC50 (PANC-1 cells): 43.1 ± 4.87 µM; IC50 [1]: 56.5 µM; IC50 at 48 hr [2]: > 50 µM

**Q.** For `COC(=O)C(CC(=O)Nc1ccc(F)cn1)c1ccc(C(F)(F)F)cc1` (centres unmarked) [Compound 23], which IC50 (hLDH5 (LDHA)) is on record?
**A.** 5.58 ± 1.05 µM

**Q.** What about the IC50 (PANC-1 cells) of the same molecule?
**A.** 22.3 ± 2 µM

**Q.** What about the IC50 [1] of the same molecule?
**A.** 13.3 ± 0.9 µM

**Q.** And the IC50 at 48 hr [2]?
**A.** > 50 µM

**Q.** For `CCCc1c(O)c(O)c(C(=O)O)c2cc(Cc3ccccc3)c(C)cc12` [FX-11], which IC50 [3] is on record?
**A.** 23.3 µM

**Q.** What about the “progression of cancer xenografts” value [4] of the same molecule?
**A.** inhibit the progression of human pancreatic and lymphoma cancer xenografts

**Q.** With `COc1ncc(-c2ccc3c(Nc4cc(Oc5cc(F)cc(F)c5)cc(C(=O)O)c4)c(S(=O)(=O)NC4CC4)cnc3c2)c(OC)n1` [GSK2837808A] as the molecule, how does the EC50 (Snu398 cells) read?
**A.** 2.9 µM

**Q.** What about the IC50 (cancer cell growth) of the same molecule?
**A.** 2.97 µM

**Q.** What about the “pharmacokinetics / clearance in vivo” value [5] of the same molecule?
**A.** poor pharmacokinetics in vivo

**Q.** Which results are given for `COC(=O)c1cc2c(C(F)(F)F)cc(-c3ccccc3)cc2n1O` [NHI-2]?
**A.** IC50 [3]: 33.4 µM; IC50 (PANC-1): 22.2 µM; apoptosis and gemcitabine synergy (PDAC cells): induced apoptosis, and synergistically enhanced gemcitabine activity in PDAC cells

**Q.** Which IC50 (MIA PaCa-2) does the source give for GNE-140 here?
**A.** 2.05 µM

**Q.** And the IC50 (cancer cell growth)?
**A.** 2 µM

**Q.** And the “pharmacokinetics / clearance in vivo” value [5]?
**A.** high clearance
